According to patent US11059786B2, “Aminopyridine compounds and methods for the preparation and use thereof” (Cortexyme, Inc., priority 2017, dated 2021):

System: not given
Experiment: not given
Conditions: in vivo, po; cited from earlier work

SMILES	half-life
CN(NC(=O)CC[C@H](NC(=O)OCc1ccccc1)C(=O)N[C@@H](CCCCN)C(=O)C(=O)NCc1ccccc1)c1ccccc1 [Kyt-36]	increases the half-life

Target: T1, RgpB (Porphyromonas gingivalis, UniProt P95493)
T1 construct: 0.02 nM RgpB, isolated from culture of Porphyromonas gingivalis; endogenous in cells
Experiment: RgpB inhibition, fluorogenic assay
Assay type: biochemical
Conditions: Activity (RgpB IC50), 0.02 nM RgpB, 10 μM Boc-Phe-Ser-Arg-MCA, 90 minutes, 37° C., pH=7.5
Protocol: The capacities of compounds of the present invention to inhibit the activity of RgpB were measured in a fluorogenic assay similar to those described in Barret Biochemical Journal. 1980, 187(3), 909. The specific assay conditions were as follows. Buffer: pH=7.5, 100 mM Tris-HCl, 75 mM NaCl, 2.5 mM CaCl2, 10 mM cysteine, 1% DMSO after all additions. Protein: 0.02 nM RgpB, isolated from culture of Porphyromonas gingivalis, as described in Pike et al. J. Biol. Chem. 1994, 269(1), 406, and Potempa and Nguyen. Current Protocols in Protein Scienc. 2007, 21.20.1-21.20.27. Fluorogenic substrate: 10 μM Boc-Phe-Ser-Arg-MCA. Time=90 minutes. Temperature=37° C. Each compound: 10 concentrations, starting at either 100 μM or 100 nM, with lower concentrations generated by serial 3-fold dilutions. By testing a range of concentrations for each compound, the concentration required to inhibit the activity of RgpB by 50% (the “IC50”) was determined.

T1 sequence (P95493 230-664): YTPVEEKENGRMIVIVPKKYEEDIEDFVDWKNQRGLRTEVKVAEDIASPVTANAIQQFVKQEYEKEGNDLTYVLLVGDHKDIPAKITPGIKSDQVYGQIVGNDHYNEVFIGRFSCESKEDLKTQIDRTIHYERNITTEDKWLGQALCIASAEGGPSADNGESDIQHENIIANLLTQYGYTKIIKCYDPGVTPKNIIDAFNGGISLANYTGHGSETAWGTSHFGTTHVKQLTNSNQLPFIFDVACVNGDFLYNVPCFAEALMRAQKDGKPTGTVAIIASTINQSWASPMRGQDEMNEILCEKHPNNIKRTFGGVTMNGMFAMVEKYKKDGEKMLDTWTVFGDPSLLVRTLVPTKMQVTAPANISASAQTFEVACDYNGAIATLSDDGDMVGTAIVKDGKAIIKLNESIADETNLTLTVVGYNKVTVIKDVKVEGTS

SMILES	IC50 [nM]
CNc1nccc2cc([C@@H]3CCCN3C#N)ccc12 [Compound 51a, (S)-2-(1-(methylamino)isoquinolin-6-yl)pyrrolidine-1-carbonitrile]	10000 to 100000
CNc1nccc2cc([C@H]3CCCN3C#N)ccc12 [Compound 51b, (R)-2-(1-(methylamino)isoquinolin-6-yl)pyrrolidine-1-carbonitrile]	10000 to 100000
Nc1ccc(CC(NC(=O)C2CCCC2)C(=O)COc2c(F)c(F)cc(F)c2F)cn1 (stereo not drawn) [Compound 53, N-(1-(6-aminopyridin-3-yl)-3-oxo-4-(2,3,5,6-tetrafluorophenoxy)butan-2-yl)cyclopentanecarboxamide]	< 100
Nc1cc(CC(NC(=O)C2CCCC2)C(=O)COc2c(F)c(F)cc(F)c2F)ccn1 (stereo not drawn) [Compound 54, N-(1-(2-aminopyridin-4-yl)-3-oxo-4-(2,3,5,6-tetrafluorophenoxy)butan-2-yl)cyclopentanecarboxamide]	< 100
Nc1cc(CC(NC(=O)C2CCCC2)C(=O)COc2c(F)cccc2F)ccn1 (stereo not drawn) [Compound 55, N-(1-(2-aminopyridin-4-yl)-4-(2,6-difluorophenoxy)-3-oxobutan-2-yl)cyclopentanecarboxamide]	< 100
Nc1ccc(C[C@H](NC(=O)C2CCCC2)C(=O)COc2c(F)c(F)cc(F)c2F)cn1 [Compound 56, (S)—N-(1-(6-aminopyridin-3-yl)-3-oxo-4-(2,3,5,6-tetrafluorophenoxy)butan-2-yl)cyclopentanecarboxamide]	< 100
Nc1ccc(C[C@@H](NC(=O)C2CCCC2)C(=O)COc2c(F)c(F)cc(F)c2F)cn1 [Compound 57, (R)—N-(1-(6-aminopyridin-3-yl)-3-oxo-4-(2,3,5,6-tetrafluorophenoxy)butan-2-yl)cyclopentanecarboxamide]	< 100
COC(C)(C)C(=O)NC(Cc1ccc(N)nc1)C(=O)COc1c(F)cccc1F (stereo not drawn) [Compound 58, N-(1-(6-aminopyridin-3-yl)-4-(2,6-difluorophenoxy)-3-oxobutan-2-yl)-2-methoxy-2-methylpropanamide]	100 to 1000
COC(C)(C)C(=O)NC(Cc1ccc(N)nc1)C(=O)COc1ccon1 (stereo not drawn) [Compound 59, N-(1-(6-aminopyridin-3-yl)-4-(isoxazol-3-yloxy)-3-oxobutan-2-yl)-2-methoxy-2-methylpropanamide]	100 to 1000
COC(C)(C)C(=O)NC(Cc1ccc(N)nc1)C(=O)COc1c(F)c(F)cc(F)c1F (stereo not drawn) [Compound 60, N-(1-(6-aminopyridin-3-yl)-3-oxo-4-(2,3,5,6-tetrafluorophenoxy)butan-2-yl)-2-methoxy-2-methylpropanamide]	< 100
COC(C)(C)C(=O)NC(Cc1ccc(N)nc1)C(=O)COc1c(F)ccc(F)c1F (stereo not drawn) [Compound 61, N-(1-(6-aminopyridin-3-yl)-3-oxo-4-(2,3,6-trifluorophenoxy)butan-2-yl)-2-methoxy-2-methylpropanamide]	< 100
COC(C)(C)C(=O)NC(Cc1ccc(N)nc1)C(=O)COc1c(F)ccc(F)c1F (stereo not drawn) [Compound 62, N-(1-(6-aminopyridin-3-yl)-3-oxo-4-(2,3,6-trifluorophenoxy)butan-2-yl)-2-methoxy-2-methylpropanamide]	100 to 1000
COC(C)(C)C(=O)NC(Cc1ccnc(N)c1)C(=O)COc1ccon1 (stereo not drawn) [Compound 63, N-(1-(2-aminopyridin-4-yl)-4-(isoxazol-3-yloxy)-3-oxobutan-2-yl)-2-methoxy-2-methylpropanamide]	1000 to 10000
COC(C)(C)C(=O)NC(Cc1ccnc(N)c1)C(=O)COc1c(F)ccc(F)c1F (stereo not drawn) [Compound 64, N-(1-(2-aminopyridin-4-yl)-3-oxo-4-(2,3,6-trifluorophenoxy)butan-2-yl)-2-methoxy-2-methylpropanamide]	100 to 1000
COC(C)(C)C(=O)NC(Cc1ccnc(N)c1)C(=O)COc1c(F)c(F)cc(F)c1F (stereo not drawn) [Compound 65, N-(1-(2-aminopyridin-4-yl)-3-oxo-4-(2,3,5,6-tetrafluorophenoxy)butan-2-yl)-2-methoxy-2-methylpropanamide]	< 100
Nc1ccc(CC(NC(=O)C2CCCC2)C(=O)COc2c(F)ccc(F)c2F)cn1 (stereo not drawn) [Compound 66, N-(1-(6-aminopyridin-3-yl)-3-oxo-4-(2,3,6-trifluorophenoxy)butan-2-yl)cyclopentanecarboxamide]	< 100
Nc1ccc(CC(NC(=O)C2CCCC2)C(=O)COc2c(F)cccc2F)cn1 (stereo not drawn) [Compound 67, N-(1-(6-aminopyridin-3-yl)-4-(2,6-difluorophenoxy)-3-oxobutan-2-yl)cyclopentanecarboxamide]	< 100
Nc1ccc(CC(NC(=O)C2CCCC2)C(=O)COc2ccon2)cn1 (stereo not drawn) [Compound 68, N-(1-(6-aminopyridin-3-yl)-4-(isoxazol-3-yloxy)-3-oxobutan-2-yl)cyclopentanecarboxamide]	< 100
Nc1cc(CC(NC(=O)C2CCCC2)C(=O)COc2c(F)ccc(F)c2F)ccn1 (stereo not drawn) [Compound 69, N-(1-(2-aminopyridin-4-yl)-3-oxo-4-(2,3,6-trifluorophenoxy)butan-2-yl)cyclopentanecarboxamide]	< 100
Nc1cc(CC(NC(=O)C2CCCC2)C(=O)COc2ccon2)ccn1 (stereo not drawn) [Compound 70, N-(1-(2-aminopyridin-4-yl)-4-(isoxazol-3-yloxy)-3-oxobutan-2-yl)cyclopentanecarboxamide]	100 to 1000
Nc1cc(CCC(NC(=O)C2CCCC2)C(=O)COc2ccon2)ccn1 (stereo not drawn) [Compound 71, N-(5-(2-aminopyridin-4-yl)-1-(isoxazol-3-yloxy)-2-oxopentan-3-yl)cyclopentanecarboxamide]	100 to 1000
Nc1ccc(CCC(NC(=O)C2CCCC2)C(=O)COc2ccon2)cn1 (stereo not drawn) [Compound 74, N-(5-(6-aminopyridin-3-yl)-1-(isoxazol-3-yloxy)-2-oxopentan-3-yl)cyclopentanecarboxamide]	< 100

Same assay, conditions: Activity (RgpB IC50), compound not tested above 1 μM; 0.02 nM RgpB, 10 μM Boc-Phe-Ser-Arg-MCA, 90 minutes, 37° C.

SMILES	IC50 [nM]
CN(C)c1nccc2cc([C@@H]3CCCN3C#N)ccc12 [Compound 52a, (S)-2-(1-(dimethylamino)isoquinolin-6-yl)pyrrolidine-1-carbonitrile]	> 1000
CN(C)c1nccc2cc([C@H]3CCCN3C#N)ccc12 [Compound 52b, (R)-2-(1-(dimethylamino)isoquinolin-6-yl)pyrrolidine-1-carbonitrile]	> 1000
COC(C)(C)C(=O)NC(Cc1ccc(N)nc1)C(=O)COC(C(F)(F)F)C(F)(F)F (stereo not drawn) [Compound 72, N-(1-(6-aminopyridin-3-yl)-4-((1,1,1,3,3,3-hexafluoropropan-2-yl)oxy)-3-oxobutan-2-yl)-2-methoxy-2-methylpropanamide]	> 1000
COC(C)(C)C(=O)NC(Cc1ccnc(N)c1)C(=O)COC(C(F)(F)F)C(F)(F)F (stereo not drawn) [Compound 73, N-(1-(2-aminopyridin-4-yl)-4-((1,1,1,3,3,3-hexafluoropropan-2-yl)oxy)-3-oxobutan-2-yl)-2-methoxy-2-methylpropanamide]	> 1000
